Earlier results on two compounds are cited in patent US7141235B2, “Stabilized gas emulsion containing phospholipid for ultrasound contrast enhancement” (Imcor Pharmaceutical Co., priority 1993, dated 2006).

Each structure is given as a SMILES string.

The conditions of the data set: in water.

Consider `CCCCCCCCCCCCCCCCCC(=O)OC[C@H](COP(=O)([O-])OCC[N+](C)(C)C)OC(=O)CCCCCCCCCCCCCCCCC` [DSPC, distearoyl phosphatidylcholine], for which the “gel to liquid-crystal phase transition temperature” value was 55.5 °C. For the compound `CCCCCCCCCCCCCC(=O)OC[C@H](COP(=O)([O-])OCC[N+](C)(C)C)OC(=O)CCCCCCCCCCCCC` [DMPC, dimyristoyl phosphatidylcholine], the “gel to liquid-crystal phase transition temperature” value was 23.5 °C.
